According to patent US5098916A, “Propanobicyclic amine derivatives for CNS disorders” (G. D. Searle & Co., priority 1990, dated 1992):

How the values were obtained:
[1] = molecular target: sigma receptor; assay: Radioreceptor assay: sigma receptor, displacement of [^3 H]-3-(+)-PPP; format: binding, male Sprague-Dawley rats; conditions: units ± SEM; rat brain crude membranes; 2 nM [^3 H]-(+)-3-PPP; 1 hr incubation at room temperature; pH 7.4; read-out: Ki apparent
Protocol: To determine the effects of the compounds in a sigma receptor assay, crude membrane preparations were prepared as follows. Brains from male Sprague-Dawley rats were homogenized in 10 volumes (wt/vol) of 0.32M sucrose, using a Polytron grinder. The homogenate was centrifuged at 900×G for 10 minutes at 4° C. The supernatant was collected and centrifuged at 22,000×g for 20 minutes at 4° C. The pellet was resuspended in 10 volumes of 50 mM Tris/HCl buffer (pH 7.4) and centrifuged at 22,000×g for 20 minutes at 4° C. The pellet was resuspended in 5 mM Tris/HCl buffer (pH 7.4) to give a final concentration of 250 mg/ml of the crude material. Incubation tubes were prepared in triplicate and contained 0.1 ml of tissue suspension, 2 nM of [^3 H]-(+)-1-propyl-3-(3-hydroxyphenyl)piperidine [^3 H]-3-(+)-PPP, and varying concentrations of the displacing ligand (0.1-1,000 nM) in a final volume of 0.5 ml. After a 1 hr incubation at room temperature, the contents of the test tubes were filtered through GS filter paper which had been presoaked for at least 2 hours in 0.05% polyethyleneimine. The test tubes were rinsed three times with Tris/HCl buffer. Radioactivity on the filters was determined using liquid scintillation spectrometry and inhibition curves were calculated according to the method of Cheng and Prusoff [Biochem. Pharmacol., 22, 3099-3108 (1973)].

[2] = Blockade of agonist (N-allylnormetazocine)-induced stereotyped behavior and ataxia; format: in vivo; conditions: 1 mg/kg i.p. test compound; 15 mg/kg i.p. N-allylnormetazocine
Protocol: Compounds of the invention were evaluated for their ability to block the effects of N-allylnormetazocine on the induction of stereotyped behavior and ataxia. To test for antagonism, drugs are administered at varying times before i.p. administration of 15 mg/kg of N-allylnormetazocine. Behavioral and ataxia ratings are taken at 2.5 minutes, 5 minutes, and every 5 minutes thereafter until the animal returns to control behavior. […] The lowest dose of the test compound which is capable of blocking the stereotyped behavior and ataxia induced by N-allylnormetazocine was determined.

Compound	Ki [1] [nM]	block of N-allylnormetazocine-induced stereotyped behavior [2]
c1ccc2c(c1)C1CCC2C(N2CCCCC2)CC1 (stereo not drawn) [Compound No. 1, exo- and endo-1-(2-Benzobicyclo[3.2.2]nonenyl)piperidine]	6 ± 1	fully blocked
c1ccc2c(c1)C1CCC2C(N2CCCCC2)CC1 (stereo not drawn) [Compound No. 2, exo-1-(2-Benzobicyclo[3.2.2]nonenyl)piperidine]	10 ± 2	
c1ccc2c(c1)C1CCC2C(N2CCCCC2)CC1 (stereo not drawn) [Compound No. 3, endo-1-(2-Benzobicyclo[3.2.2]nonenyl)piperidine]	150 ± 20	
OCCN1CCN(C2CCC3CCC2c2ccccc23)CC1 (stereo not drawn) [Compound No. 4, endo- and exo-1-(2-Benzobicyclo[3.2.2]nonenyl)-4-(2-hydroxyethyl)piperazine]	305 ± 20	
CN1CCN(C2CCC3CCC2c2ccccc23)CC1 (stereo not drawn) [Compound No. 5]	16000 ± 4000	
